Test results as given in patent US20260224577A1, “METHODS OF TREATING HEART FAILURE WITH VIBEGRON” (SUMITOMO PHARMA CO., LTD., priority 2021, published 2026).

How the values were obtained:
β3-adrenergic receptor = biological target: T1, β3-adrenergic receptor (Homo sapiens, UniProt P13945); experiment: Functional cellular cAMP (HTRF) assay, HEK293 cells expressing β3-ARs; assay type: cell-based
T1 construct: expressed in transfected cells; host or cells: HEK293
Protocol: (§1) The potency and maximal effect of vibegron and mirabegron for β3-adrenergic receptors and the selectivity for each […] receptor were determined. Functional cellular assays for vibegron and mirabegron activity were performed using Chinese hamster ovary (CHO) cells expressing β1- or β2-ARs and human embryonic kidney (HEK) 293 cells expressing β3-ARs. Cells were incubated with vibegron, mirabegron, or the appropriate control (isoproterenol for β1 and β3, procaterol for β2). Responses were quantified using homogeneous time-resolved fluorescence of cyclic adenosine monophosphate. Half-maximal effective concentration (EC50) and maximum response (Emax) values were determined by nonlinear least-squares regression analysis.

β1-adrenergic receptor = biological target: T2, β1-adrenergic receptor (Homo sapiens, UniProt P08588); experiment: Functional cellular cAMP (HTRF) assay, CHO cells expressing β1-ARs; assay type: cell-based; settings: relative to isoproterenol
T2 construct: expressed in transfected cells; host or cells: CHO
Protocol: as §1

[1] = test system: subjects with NYHA class II-III HF and LVEF <40%; settings: BEAT-HF trial; cited from earlier work
β2-adrenergic receptor = biological target: T3, β2-adrenergic receptor (Homo sapiens, UniProt P07550); experiment: Functional cellular cAMP (HTRF) assay, CHO cells expressing β2-ARs; assay type: cell-based; settings: relative to procaterol
T3 construct: expressed in transfected cells; host or cells: CHO
Protocol: as §1

[2] = test system: elderly patients with heart failure, including a subgroup with HFpEF; settings: cited from earlier work

T1 sequence (P13945 whole entry): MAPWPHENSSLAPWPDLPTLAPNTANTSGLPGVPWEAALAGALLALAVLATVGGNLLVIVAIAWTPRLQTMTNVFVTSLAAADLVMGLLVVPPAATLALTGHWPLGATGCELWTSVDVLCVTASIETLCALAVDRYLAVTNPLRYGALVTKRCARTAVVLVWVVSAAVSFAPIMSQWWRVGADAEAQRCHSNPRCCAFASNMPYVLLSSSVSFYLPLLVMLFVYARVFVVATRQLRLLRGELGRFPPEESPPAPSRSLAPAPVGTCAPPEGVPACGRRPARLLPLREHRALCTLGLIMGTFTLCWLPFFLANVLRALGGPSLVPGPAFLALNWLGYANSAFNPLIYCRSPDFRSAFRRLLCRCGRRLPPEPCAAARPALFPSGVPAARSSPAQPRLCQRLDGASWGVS
T3 sequence (P07550 whole entry): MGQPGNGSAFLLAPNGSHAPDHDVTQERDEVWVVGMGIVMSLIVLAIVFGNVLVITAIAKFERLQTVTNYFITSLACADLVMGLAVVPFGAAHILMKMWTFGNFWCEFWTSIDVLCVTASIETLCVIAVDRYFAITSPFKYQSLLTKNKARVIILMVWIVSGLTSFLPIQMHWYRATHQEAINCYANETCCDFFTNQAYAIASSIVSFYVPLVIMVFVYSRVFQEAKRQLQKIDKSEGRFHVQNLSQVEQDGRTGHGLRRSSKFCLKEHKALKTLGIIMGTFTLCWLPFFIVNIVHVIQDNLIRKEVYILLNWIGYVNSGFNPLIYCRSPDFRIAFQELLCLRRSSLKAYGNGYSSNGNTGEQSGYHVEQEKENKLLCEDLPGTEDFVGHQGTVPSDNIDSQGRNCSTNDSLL
T2 sequence (P08588 whole entry): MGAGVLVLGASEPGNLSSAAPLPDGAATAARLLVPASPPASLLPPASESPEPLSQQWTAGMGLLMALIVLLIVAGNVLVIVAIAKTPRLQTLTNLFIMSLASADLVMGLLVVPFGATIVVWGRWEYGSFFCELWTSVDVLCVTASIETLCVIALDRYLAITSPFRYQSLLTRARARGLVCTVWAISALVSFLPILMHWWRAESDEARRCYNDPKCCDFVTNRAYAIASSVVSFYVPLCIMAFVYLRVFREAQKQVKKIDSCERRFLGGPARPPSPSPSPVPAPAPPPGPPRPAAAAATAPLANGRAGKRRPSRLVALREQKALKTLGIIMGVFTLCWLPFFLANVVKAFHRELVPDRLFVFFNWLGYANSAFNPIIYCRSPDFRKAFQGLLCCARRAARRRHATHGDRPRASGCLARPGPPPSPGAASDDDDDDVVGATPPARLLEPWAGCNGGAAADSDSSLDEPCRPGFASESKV

Row | β3-adrenergic activity relative to isoproterenol (% Activity) (β3-adrenergic receptor; 10 μM, HEK293 cells) [%] | Emax (β3-adrenergic receptor; HEK293, estimated by nonlinear least-squares regression, read-out: Emax (maximum response) at the β3-AR) [%] | EC50 (β3-adrenergic receptor; HEK293 cells expressing β3-ARs, cAMP, read-out: Mean (SEM) EC50 at the β3-AR) [nM] | β1-adrenergic activity (% Activity) (β1-adrenergic receptor) [%] | β2-adrenergic activity (% Activity) (β2-adrenergic receptor) [%] | Compound | Primary endpoint (change in LVEF) [1] | Treatment of heart failure [2]
1 | 88 | 80.4 | 10 | 3 | 15 | Nc1nc(CC(=O)Nc2ccc(CCNC[C@H](O)c3ccccc3)cc2)cs1 [Mirabegron] | failed to meet the primary endpoint | –
2 | – | – | – | – | – | OC(CNCC(O)C1CCc2cc(F)ccc2O1)C1CCc2cc(F)ccc2O1 (stereo not shown) [nebivolol] | – | some success in treating heart failure in elderly patients
